Assay results taken from patent US10077261B2, “Imidazolin-5-one derivative useful as FASN inhibitors for the treatment of cancer” (Janssen Pharmaceutica NV, priority 2012, dated 2018).

What was measured:
[1] = target: T1, hFASN enzyme (full length) (Homo sapiens, UniProt P49327); assay: Fatty Acid Synthase (FASN) inhibition scintillation proximity assay; type: biochemical; settings: for inhibition at 10 µM: read-out: Human FASN % inhibition @ 10 μM, 10 μM test compound; for IC50: read-out: Human FASN pIC50 (converted)
T1 construct: 10 μL hFASN enzyme (full length, 300 ng, purified in house); made in house
Summary of the method: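 Compounds at 0.01–30 μM were mixed with 300 ng purified full-length enzyme in 100 mM KH2PO4 pH 7.5, 1 mM DTT. Substrates ³H-acetyl-CoA and malonyl-CoA were then converted, and bead addition stopped the reaction. Signal was normalised to low and high plate controls and fitted by 4-parameter nonlinear regression.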

[2] = tested on: A2780 ovarian cells; assay: A2780 ovarian cell proliferation assay in lipid reduced medium, with palmitate (MTT); type: cell-based; settings: Homo sapiens, A2780, 96 h; read-out: pIC50 A2780 Ovarian Cell, With Palmitate (converted)
Experimental: (§1) The biological assays described below correspond to comparative assays for ovarian cell proliferation. […] Compounds active in the absence of palmitate would not be expected to be active in the control.
(§2) 2500 cells were seeded in a 96-well clear well plate in 200 μL RPMI1640 with 10% Fetal Calf Serum (Hyclone), and incubated at 37° C., 5% CO2. Blanks were wells without cells. The next day the culture medium was aspirated and replaced by 160 μL culture medium with 10% Lipid-Reduced Serum (LRS, Hyclone). 20 μL test compound (at concentrations of 30 μM, 10 μM, 3 μM, 1 μM, 0.30 μM, 0.10 μM, 0.03 μM and 0.01 μM)/DMSO dilution followed by 20 μL palmitate-BSA solution were added to a final concentrations of 0.2% DMSO, 25 μM palmitate (Sigma, P0500, 10 mM stock solution in ethanol) 0.2% fatty-acid-free BSA, 0.25% ethanol. After 96 h incubation, an MTT assay was performed. The absorbance was measured at 544 nm on a SPECTRAMAX brand microplate reader (Molecular Devices).
A best fit curve was fitted by a minimum sum of squares method, plotting Controlmin versus test compound concentration.
(§3) Representative compounds of the present invention were tested according to the procedure as described in Biological Example 3 above, with results as listed in Table 8, below.

[3] = tested on: A2780 ovarian cells; assay: A2780 ovarian cell proliferation assay in lipid reduced medium, without palmitate (MTT); type: cell-based; settings: Homo sapiens, A2780, 96 h; read-out: pIC50 A2780 Ovarian Cell, Without Palmitate (converted)
Experimental: as §1
as §2, with “ethanol-BSA” for “palmitate-BSA”, “DMSO,” for “DMSO, 25 μM palmitate (Sigma, P0500, 10 mM stock solution in ethanol)”, “incubation” for “incubation,”
where mLC and mHC were the means of the low control wells and high control wells on the plate, after manual exclusion of outliers. A plot of Controlmin versus test compound concentration was fitted to a 4-parameter logistic curve using a non-linear least squares regression method.
as §3

T1 sequence (P49327 whole entry): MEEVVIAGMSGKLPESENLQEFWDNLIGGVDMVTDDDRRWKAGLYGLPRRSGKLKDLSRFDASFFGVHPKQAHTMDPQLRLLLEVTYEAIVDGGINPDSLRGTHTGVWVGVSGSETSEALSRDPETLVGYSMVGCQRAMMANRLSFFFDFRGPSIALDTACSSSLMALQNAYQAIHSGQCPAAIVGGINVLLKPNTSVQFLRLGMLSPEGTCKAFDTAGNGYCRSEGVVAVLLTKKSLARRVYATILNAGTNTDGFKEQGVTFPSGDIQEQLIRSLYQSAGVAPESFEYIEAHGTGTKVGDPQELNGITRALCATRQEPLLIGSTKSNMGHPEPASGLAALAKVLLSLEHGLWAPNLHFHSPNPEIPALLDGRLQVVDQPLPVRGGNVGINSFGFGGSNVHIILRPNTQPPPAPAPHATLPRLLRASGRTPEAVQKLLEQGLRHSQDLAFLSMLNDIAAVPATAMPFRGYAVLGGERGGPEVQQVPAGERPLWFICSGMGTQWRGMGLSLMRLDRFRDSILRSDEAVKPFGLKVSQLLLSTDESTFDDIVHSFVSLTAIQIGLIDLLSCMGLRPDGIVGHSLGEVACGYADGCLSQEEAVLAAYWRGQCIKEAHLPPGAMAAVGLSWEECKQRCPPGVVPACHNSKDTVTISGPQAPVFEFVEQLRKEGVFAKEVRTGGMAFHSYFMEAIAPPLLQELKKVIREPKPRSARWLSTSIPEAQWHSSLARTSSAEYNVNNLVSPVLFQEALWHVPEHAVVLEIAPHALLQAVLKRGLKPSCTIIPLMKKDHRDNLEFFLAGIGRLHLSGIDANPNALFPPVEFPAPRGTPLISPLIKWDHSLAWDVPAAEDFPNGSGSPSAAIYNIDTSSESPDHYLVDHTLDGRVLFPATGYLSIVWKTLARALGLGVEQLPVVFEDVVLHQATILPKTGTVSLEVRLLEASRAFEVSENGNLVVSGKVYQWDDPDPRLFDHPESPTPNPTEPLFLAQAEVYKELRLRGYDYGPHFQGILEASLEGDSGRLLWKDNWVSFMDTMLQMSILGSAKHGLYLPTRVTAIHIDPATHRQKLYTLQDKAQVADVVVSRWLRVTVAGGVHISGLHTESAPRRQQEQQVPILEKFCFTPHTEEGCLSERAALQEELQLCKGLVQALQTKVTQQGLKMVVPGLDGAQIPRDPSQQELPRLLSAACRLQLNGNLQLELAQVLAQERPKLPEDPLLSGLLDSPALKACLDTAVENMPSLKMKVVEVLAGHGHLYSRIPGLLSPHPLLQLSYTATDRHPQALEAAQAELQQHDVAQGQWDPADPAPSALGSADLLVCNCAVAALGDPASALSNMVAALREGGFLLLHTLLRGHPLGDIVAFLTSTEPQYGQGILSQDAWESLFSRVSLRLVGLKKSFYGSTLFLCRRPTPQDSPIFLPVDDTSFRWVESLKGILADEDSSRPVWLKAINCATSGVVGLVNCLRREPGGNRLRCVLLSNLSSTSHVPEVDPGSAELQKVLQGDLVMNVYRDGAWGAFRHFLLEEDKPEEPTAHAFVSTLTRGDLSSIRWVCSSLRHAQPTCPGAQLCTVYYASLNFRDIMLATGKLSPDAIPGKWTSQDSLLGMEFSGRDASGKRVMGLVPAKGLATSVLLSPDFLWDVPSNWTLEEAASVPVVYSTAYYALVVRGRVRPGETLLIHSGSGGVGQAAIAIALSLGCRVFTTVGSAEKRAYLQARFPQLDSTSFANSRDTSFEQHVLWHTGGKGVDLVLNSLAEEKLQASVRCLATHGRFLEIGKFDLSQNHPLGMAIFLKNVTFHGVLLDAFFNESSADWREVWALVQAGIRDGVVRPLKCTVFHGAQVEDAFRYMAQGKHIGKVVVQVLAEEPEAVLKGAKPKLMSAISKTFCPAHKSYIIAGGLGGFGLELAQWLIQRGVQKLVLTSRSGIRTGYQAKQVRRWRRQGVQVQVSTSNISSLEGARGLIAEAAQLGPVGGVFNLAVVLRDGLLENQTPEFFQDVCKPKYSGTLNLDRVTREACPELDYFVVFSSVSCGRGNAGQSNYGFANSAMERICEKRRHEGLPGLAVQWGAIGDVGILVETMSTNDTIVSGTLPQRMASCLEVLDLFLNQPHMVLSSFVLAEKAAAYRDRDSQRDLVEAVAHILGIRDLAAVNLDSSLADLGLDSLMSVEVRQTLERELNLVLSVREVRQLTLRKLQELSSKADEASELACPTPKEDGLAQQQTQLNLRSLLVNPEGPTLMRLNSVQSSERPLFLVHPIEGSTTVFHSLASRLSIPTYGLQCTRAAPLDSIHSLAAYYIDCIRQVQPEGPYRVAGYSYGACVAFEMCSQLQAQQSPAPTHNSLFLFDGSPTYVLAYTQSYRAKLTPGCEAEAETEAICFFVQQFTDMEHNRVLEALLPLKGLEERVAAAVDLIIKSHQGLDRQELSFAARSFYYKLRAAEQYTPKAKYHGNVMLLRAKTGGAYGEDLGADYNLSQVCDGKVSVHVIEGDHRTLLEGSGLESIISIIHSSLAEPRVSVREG

Structure (SMILES) | inhibition at 10 µM [1] [%] | IC50 [1] [µM] | IC50 [2] [µM] | IC50 [3] [µM]
CC(C)C(=O)N1CCC2(CC1)N=C(c1ccc(-c3ccc4cnccc4c3)cc1)N(CC1CN(C(=O)C3CC3)C1)C2=O [compound 137, 3-{[1-(Cyclopropylcarbonyl)azetidin-3-yl]methyl}-2-(4-isoquinolin-6-ylphenyl)-8-(2-methylpropanoyl)-1,3,8-triazaspiro[4.5]dec-1-en-4-one] | 112 | 0.178 | ~6.03 | ~0.851
CC1(C(=O)N2CC[C@@H](CN3C(=O)C4(CC4)N=C3c3ccc(-c4ccc5cc(F)ccc5c4)cc3F)C2)CC1 [compound 363, (R)-5-(2-fluoro-4-(6-fluoronaphthalen-2-yl)phenyl)-6-((1-(1-methylcyclopropancecarbonyl)pyrrolidin-3-yl)methyl)-4,6-diazaspiro[2.4]hept-4-en-7-one] | 94 | 0.0398 | ~1.51 | ~0.00646
Cn1cc(-c2ccc(-c3ccc(C4=NC5(CC5)C(=O)N4C[C@@H]4CCN(C(=O)C5(C)CC5)C4)c(F)c3)cc2)cn1 [compound 364, (R)-5-(3-fluoro-4′-(1-methyl-1H-pyrazol-4-yl)-[1,1′-biphenyl]-4-yl)-6-((1-(1-methylcyclopropanecarbonyl)pyrrolidin-3-yl)methyl)-4,6-diazaspiro[2.4]hept-4-en-7-one] | 89 | 0.0575 | 0.229 | ~0.00295
COc1ccc2cc(-c3ccc(C4=NC5(CC5)C(=O)N4CC4CN(C(=O)C5(O)CC5)C4)c(F)c3)ccc2c1 [compound 366, 5-(2-fluoro-4-(6-methoxynaphthalen-2-yl)phenyl)-6-((1-(1-hydroxycyclopropanecarbonyl)azetidin-3-yl)methyl)-4,6-diazaspiro[2.4]hept-4-en-7-one] | 89 | 0.0617 | 0.562 | ~0.00562
Cc1cc(-c2ccc3c(cnn3C)c2)ccc1C1=NC2(CC2)C(=O)N1CC1CN(C(=O)c2nccs2)C1 [compound 518, 5-[2-Methyl-4-(1-methyl-1H-indazol-5-yl)phenyl]-6-{[1-(1,3-thiazol-2-ylcarbonyl)azetidin-3-yl]methyl}-4,6-diazaspiro[2.4]hept-4-en-7-one] | 62 | ~4.68 | ~4.07 | ~3.98
O=C(C1CC1)N1CC(CN2C(=O)C3(CC3)N=C2c2ccc(-c3ccc4c(cnn4C4CC4)c3)cc2F)C1 [compound 522, 6-{[1-(Cyclopropylcarbonyl)azetidin-3-yl]methyl}-5-[4-(1-cyclopropyl-1-indazol-5-yl)-2-fluorophenyl]-4,6-diazaspiro[2.4]hept-4-en-7-one] | 79 | 1.66 | > 10 | 2.88
O=C(C1CC1)N1CC(CN2C(=O)C3(CC3)N=C2c2ccc(-c3ccc4nn(CC5CC5)cc4c3)cc2F)C1 [compound 524, 6-{[1-(Cyclopropylcarbonyl)azetidin-3-yl]methyl}-5-{4-[2-(cyclopropylmethyl)-2H-indazol-5-yl]-2-fluorophenyl}-4,6-diazaspiro[2.4]hept-4-en-7-one] | 73 | 2.09 | > 10 | 4.9
CC(C)n1ccc2cc(-c3ccc(C4=NC5(CC5)C(=O)N4CC4CN(C(=O)C5CC5)C4)c(F)c3)ccc21 [compound 525, 6-{[1-(Cyclopropylcarbonyl)azetidin-3-yl]methyl}-5-{2-fluoro-4-[1-(1-methylethyl)-1H-indol-5-yl]phenyl}-4,6-diazaspiro[2.4]hept-4-en-7-one] | 84 | 1.05 | > 10 | 4.9
O=C(C1CC1)N1CC(CN2C(=O)C3(CC3)N=C2c2ccc(-c3ccc4c(cnn4CCO)c3)cc2F)C1 [compound 527, 6-{[1-(Cyclopropylcarbonyl)azetidin-3-yl]methyl}-5-{2-fluoro-4-[1-(2-hydroxyethyl)-1H-indazol-5-yl]phenyl}-4,6-diazaspiro[2.4]hept-4-en-7-one] | 83 | 1.58 | > 10 | ~1.95
O=C(C1CC1)N1CC(CN2C(=O)C3(CC3)N=C2c2ccc(-c3cc4ccccc4nc3O)cc2)C1 [compound 532, 6-{[1-(Cyclopropylcarbonyl)azetidin-3-yl]methyl}-5-[4-(2-hydroxyquinolin-3-yl)phenyl]-4,6-diazaspiro[2.4]hept-4-en-7-one] | 58 | 5.37 | > 10 | > 10
N#CCCn1ncc2cc(-c3ccc(C4=NC5(CC5)C(=O)N4CC4CN(C(=O)C5CC5)C4)cc3)ccc21 [compound 533, 3-{5-[4-(6-{[1-(Cyclopropylcarbonyl)azetidin-3-yl]methyl}-7-oxo-4,6-diazaspiro[2.4]hept-4-en-5-yl)phenyl]-1H-indazol-1-yl}propanenitrile] | 54 | 7.59 | > 10 | > 10
Cc1cc(Cl)c2ccc(-c3ccc(C4=NC5(CC5)C(=O)N4CC4CN(C(=O)C5CC5)C4)cc3)cc2n1 [compound 535, 5-[4-(4-Chloro-2-methylquinolin-7-yl)phenyl]-6-{[1-(cyclopropylcarbonyl)azetidin-3-yl]methyl}-4,6-diazaspiro[2.4]hept-4-en-7-one] | 53 | – | 7.76 | 6.61
O=C(C1CC1)N1CC(CN2C(=O)C3(CC3)N=C2c2ccc(-c3ccc4nncn4c3)cc2)C1 [compound 539, 6-{[1-(Cyclopropylcarbonyl)azetidin-3-yl]methyl}-5-(4-[1,2,4]triazolo[4,3-a]pyridin-6-ylphenyl)-4,6-diazaspiro[2.4]hept-4-en-7-one] | 54 | ~6.31 | > 10 | > 10
O=C(C1CC1)N1CC(CN2C(=O)C3(CC3)N=C2c2ccc(-c3ccc4ccc(Cl)nc4c3)cc2)C1 [compound 540, 5-[4-(2-Chloroquinolin-7-yl)phenyl]-6-{[1-(cyclopropylcarbonyl)azetidin-3-yl]methyl}-4,6-diazaspiro[2.4]hept-4-en-7-one] | 64 | 5.01 | 9.33 | 4.47
O=C(C1CC1)N1CC(CN2C(=O)C3(CC3)N=C2c2ccc(-c3ccc4nn(CCO)cc4c3)cc2)C1 [compound 549, 6-{[1-(Cyclopropylcarbonyl)azetidin-3-yl]methyl}-5-{4-[2-(2-hydroxyethyl)-2H-indazol-5-yl]phenyl}-4,6-diazaspiro[2.4]hept-4-en-7-one] | 83 | 1.78 | > 10 | 3.8
CC(C)n1ncc2ccc(-c3ccc(C4=NC5(CC5)C(=O)N4CC4CN(C(=O)C5CC5)C4)cc3)cc21 [compound 550, 6-{[1-(Cyclopropylcarbonyl)azetidin-3-yl]methyl}-5-{4-[1-(1-methylethyl)-1H-indazol-6-yl]phenyl}-4,6-diazaspiro[2.4]hept-4-en-7-one] | 80 | 1.82 | ~10 | 3.47
O=C(C1CC1)N1CC(CN2C(=O)C3(CC3)N=C2c2ccc(-c3cc4cnn(CCO)c4cc3F)cc2)C1 [compound 552, 6-{[1-(Cyclopropylcarbonyl)azetidin-3-yl]methyl}-5-{4-[6-fluoro-1-(2-hydroxyethyl)-1H-indazol-5-yl]phenyl}-4,6-diazaspiro[2.4]hep-t-4-en-7-one] | 66 | 4.9 | > 10 | 1.7
O=C(C1CC1)N1CC(CN2C(=O)C3(CC3)N=C2c2ccc(-c3cc4cn(CCO)nc4cc3F)cc2)C1 [compound 553, 6-{[1-(Cyclopropylcarbonyl)azetidin-3-yl]methyl}-5-{4-[6-fluoro-2-(2-hydroxyethyl)-2H-indazol-5-yl]phenyl}-4,6-diazaspiro[2.4]hept-4-en-7-one] | 85 | 1.35 | > 10 | 2.75
